How the values were obtained:
Type in all cases: in vivo
[1] = tested on: ZEA MAYS L.; experiment: Postemergence herbicidal evaluation, ZEAMX (Corn, Field)
Procedure, shortened: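 This greenhouse postemergence test treated corn plants about two weeks old. Compounds in a 50/50 acetone/water mixture with 0.5% TWEEN®20 were applied through a spray nozzle at 40 psi. After four to five weeks, injury was scored 0-9 against an untreated control, judging stand, vigor, malformation, size, chlorosis and overall appearance. Repeated tests were averaged.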

[2] = tested on: GALIUM APARINE; experiment: Postemergence herbicidal evaluation, GALAP (Galium); set-up: key to GALAP rating / Herbicidal effect rating, GALAP / GALAP: 0-9 visual rating scale vs untreated control
Procedure, shortened: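 In this postemergence greenhouse test, two-week-old Galium aparine seedlings grown in jiffy flats received a 40 psi spray of compound in acetone/water (50/50) with 0.5% TWEEN®20 surfactant. After four to five weeks, stand, vigor, malformation, size, chlorosis and overall appearance were compared with untreated controls on a 0-9 scale, averaging multiple tests.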

[3] = tested on: ABUTILON THEOPHRASTI, MEDIC.; experiment: Postemergence herbicidal evaluation, ABUTH (Velvetleaf)
Procedure, shortened: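 This postemergence herbicide test used two-week-old velvetleaf seedlings grown in jiffy flats. Each compound was sprayed at 40 psi as a dispersion in 50/50 acetone/water with 0.5% TWEEN®20 surfactant. Plants then received routine greenhouse care. After four to five weeks, injury was scored visually on a 0-9 scale against a control, and replicate tests were averaged.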

[4] = tested on: ECHINOCHLOA CRUS-GALLI, (L) BEAU; experiment: Postemergence herbicidal evaluation, ECHCG (Barnyardgrass); set-up: key to ECHCG rating / Herbicidal effect rating, ECHCG / ECHCG: 0-9 visual rating scale vs untreated control
Procedure, shortened: (§1)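 Each value is a 0–9 visual rating of plant appearance compared with control, recorded 4–5 weeks after a 0.125–0.500 kg/ha spray, with multiple tests averaged.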

[5] = tested on: CHENOPODIUM ALBUM, L.; experiment: Postemergence herbicidal evaluation, CHEAL (Lambsquarters, Common)
Procedure, shortened: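 Postemergence herbicidal activity on Chenopodium album was tested by spraying two-week-old seedlings grown in jiffy flats with compound in acetone/water (50/50) plus 0.5% TWEEN®20, using a 40 psi nozzle. Four to five weeks after treatment, stand, vigor, malformation, size, chlorosis and overall appearance were scored 0-9 relative to controls, with repeat tests averaged.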

[6] = tested on: IPOMOEA SPP.; experiment: Postemergence herbicidal evaluation, IPOSS (Morningglory spp.)
Procedure, shortened: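 In this greenhouse postemergence herbicide test on Ipomoea spp. (morningglory), compounds in 50/50 acetone/water with 0.5% TWEEN®20 were sprayed at 40 psi onto seedlings about two weeks old grown in jiffy flats. After four to five weeks, injury was scored on a 0-9 scale covering stand, vigor, malformation, size, chlorosis and overall appearance versus control, with repeat tests averaged.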

[7] = tested on: CHENOPODIUM ALBUM, L.; experiment: Preemergence herbicidal evaluation, CHEAL (Lambsquarters, Common); conditions: for CHEAL herbicidal rating: rated four to five weeks after treatment
Procedure, shortened: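 Seeds mixed with potting soil were planted on about one inch of soil in cups, then sprayed with aqueous acetone solution of test compound at about 0.125 to 0.50 kg per hectare. Plants grown under greenhouse conditions; visual rating on a 0-9 scale versus untreated control at 4-5 weeks.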

[8] = tested on: AMBROSIA ARTEMISIIFOLIA, L.; experiment: Postemergence herbicidal evaluation, AMBEL (Ragweed, Common)
Procedure, shortened: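 Postemergence herbicidal activity on AMBEL (common ragweed) was assessed on two-week-old seedlings grown in jiffy flats. Treatment solutions of 50/50 acetone/water with 0.5% TWEEN®20 surfactant were sprayed at 40 psi. After four to five weeks in the greenhouse, plants were scored 0-9 against a control for stand, vigor, malformation, size, chlorosis and overall appearance, with multiple tests averaged.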

[9] = tested on: TRITICUM AESTIVUM, CV. APOLLO; experiment: Postemergence herbicidal evaluation, TRZAWO (Wheat, Winter, CV. APOLLO)
Procedure, shortened: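 This greenhouse postemergence test applied compounds to roughly two-week-old wheat seedlings grown in jiffy flats. The spray solution was 50/50 acetone/water with 0.5% TWEEN®20, a polyoxyethylene sorbitan monolaurate, sprayed from a nozzle run at 40 psi. After four to five weeks of standard greenhouse care, injury was scored from 0 to 9 by comparing stand, vigor, malformation, size, chlorosis and overall appearance with a control. Multiple tests were averaged.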

[10] = tested on: SETARIA VIRIDIS, (L) BEAU; experiment: Postemergence herbicidal evaluation, SETVI (Foxtail, Green); set-up: key to SETVI rating / Herbicidal effect rating, SETVI / SETVI: 0-9 visual rating scale vs untreated control
Procedure, shortened: as §1

[11] = tested on: ORYZA SATIVA, L. TEBONNET; experiment: Rice tolerance to post-transplant applications under flooded paddy conditions, ORYSAT (Rice, Tebonnet); conditions: for ORYSAT: post-transplanted rice; for Herbicidal effect rating, ORYSAT: post-transplant rice, 3-4 weeks after treatment
Procedure, shortened: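 Greenhouse pots of silt loam, each with two transplanted ten-day-old seedlings, are held under 1.5 to 3 cm of standing water. Three days later the compound is applied to the flooded surface at about 0.5, 0.25, 0.125 or 0.063 kg/ha. Damage is scored visually 0-9 after 3-4 weeks.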

Cn1c(=O)[nH]c(=O)n(-c2cc(Oc3ccc(C(F)(F)F)cc3Cl)ccc2Cl)c1=O [F, reference compound]
ZEAMX ([1]; Rate 0.016 kg/ha): 1.5
ZEAMX ([1]; Rate 0.032 kg/ha): 2.0
ZEAMX ([1]; Rate 0.063 kg/ha): 2.5
ZEAMX ([1]; Rate 0.125 kg/ha): 3.0
ZEAMX ([1]; Rate 0.250 kg/ha): 4.0
ZEAMX ([1]; Rate 0.500 kg/ha): 4.0
GALAP ([2]; Rate 0.016 kg/ha): 5.0
GALAP ([2]; Rate 0.032 kg/ha): 6.0
GALAP ([2]; Rate 0.063 kg/ha): 6.0
GALAP ([2]; Rate 0.125 kg/ha): 6.0
GALAP ([2]; Rate 0.250 kg/ha): 8.0
GALAP ([2]; Rate 0.500 kg/ha): 6.0
ABUTH ([3]; Rate 0.016 kg/ha): 4.0
ABUTH ([3]; Rate 0.032 kg/ha): 4.0
ABUTH ([3]; Rate 0.063 kg/ha): 5.0
ABUTH ([3]; Rate 0.125 kg/ha): 5.0
ABUTH ([3]; Rate 0.250 kg/ha): 7.0
ABUTH ([3]; Rate 0.500 kg/ha): 9.0
ECHCG ([4]; Rate 0.016 kg/ha): 0.0
ECHCG ([4]; Rate 0.032 kg/ha): 0.0
ECHCG ([4]; Rate 0.063 kg/ha): 0.0
ECHCG ([4]; Rate 0.125 kg/ha): 1.0
ECHCG ([4]; Rate 0.250 kg/ha): 2.0
ECHCG ([4]; Rate 0.500 kg/ha): 2.0
CHEAL ([5]; Rate 0.016 kg/ha): 4.0
CHEAL ([5]; Rate 0.032 kg/ha): 5.0
CHEAL ([5]; Rate 0.063 kg/ha): 6.0
CHEAL ([5]; Rate 0.125 kg/ha): 8.0
CHEAL ([5]; Rate 0.250 kg/ha): 9.0
CHEAL ([5]; Rate 0.500 kg/ha): 9.0
IPOSS ([6]; Rate 0.016 kg/ha): 3.0
IPOSS ([6]; Rate 0.032 kg/ha): 4.0
IPOSS ([6]; Rate 0.063 kg/ha): 6.0
IPOSS ([6]; Rate 0.125 kg/ha): 5.0
IPOSS ([6]; Rate 0.250 kg/ha): 6.0
IPOSS ([6]; Rate 0.500 kg/ha): 7.0
CHEAL ([7]; Rate 0.063 kg/ha): 9.0
CHEAL ([7]; Rate 0.125 kg/ha): 9.0
CHEAL ([7]; Rate 0.250 kg/ha): 9.0
CHEAL ([7]; Rate 0.500 kg/ha): 9.0
AMBEL ([8]; Rate 0.016 kg/ha): 2.0
AMBEL ([8]; Rate 0.032 kg/ha): 3.0
AMBEL ([8]; Rate 0.063 kg/ha): 6.0
AMBEL ([8]; Rate 0.125 kg/ha): 6.0
AMBEL ([8]; Rate 0.250 kg/ha): 6.0
AMBEL ([8]; Rate 0.500 kg/ha): 7.0
TRZAWO ([9]; Rate 0.016 kg/ha): 1.5
TRZAWO ([9]; Rate 0.032 kg/ha): 1.5
TRZAWO ([9]; Rate 0.063 kg/ha): 2.5
TRZAWO ([9]; Rate 0.125 kg/ha): 3.0
TRZAWO ([9]; Rate 0.250 kg/ha): 3.5
TRZAWO ([9]; Rate 0.500 kg/ha): 3.5
SETVI ([10]; Rate 0.016 kg/ha): 0.0
SETVI ([10]; Rate 0.032 kg/ha): 1.0
SETVI ([10]; Rate 0.063 kg/ha): 3.0
SETVI ([10]; Rate 0.125 kg/ha): 2.0
SETVI ([10]; Rate 0.250 kg/ha): 3.0
SETVI ([10]; Rate 0.500 kg/ha): 3.0
ORYSAT ([11]; Rate 0.031 kg/ha): 0.0
ORYSAT ([11]; Rate 0.063 kg/ha): 0.0
ORYSAT ([11]; Rate 0.125 kg/ha): 1.0
ORYSAT ([11]; Rate 0.250 kg/ha): 2.0

Methyl 3-{2-[(2-chloro-α,α,α,-trifluoro-p-tolyl)oxy]phenyl}tetrahydro-5-methyl-2,4,6-trioxo-s-triazine-1(2H)-acetate [Compound 28]
ZEAMX ([1]; Rate 0.063 kg/ha): 1.5
ZEAMX ([1]; Rate 0.125 kg/ha): 2.5
ZEAMX rating ([1]; Rate 0.125 kg/ha): 2.5
ZEAMX ([1]; Rate 0.250 kg/ha): 4.0
ZEAMX rating ([1]; Rate 0.250 kg/ha): 4.0
ZEAMX ([1]; Rate 0.500 kg/ha): 4.5
ZEAMX rating ([1]; Rate 0.500 kg/ha): 4.5
GALAP ([2]; Rate 0.063 kg/ha): 6.0
GALAP ([2]; Rate 0.125 kg/ha): 4.0
GALAP rating ([2]; Rate 0.125 kg/ha): 4.0
GALAP ([2]; Rate 0.250 kg/ha): 5.0
GALAP rating ([2]; Rate 0.250 kg/ha): 5.0
GALAP ([2]; Rate 0.500 kg/ha): 4.5
GALAP rating ([2]; Rate 0.500 kg/ha): 4.5
ABUTH ([3]; Rate 0.063 kg/ha): 4.0
ABUTH ([3]; Rate 0.125 kg/ha): 6.0
ABUTH rating ([3]; Rate 0.125 kg/ha): 6.0
ABUTH ([3]; Rate 0.250 kg/ha): 7.0
ABUTH rating ([3]; Rate 0.250 kg/ha): 7.0
ABUTH ([3]; Rate 0.500 kg/ha): 9.0
ABUTH rating ([3]; Rate 0.500 kg/ha): 9.0
ECHCG ([4]; Rate 0.063 kg/ha): 0.0
ECHCG ([4]; Rate 0.125 kg/ha): 0.0
ECHCG rating ([4]; Rate 0.125 kg/ha): 0.0
ECHCG ([4]; Rate 0.250 kg/ha): 0.0
ECHCG rating ([4]; Rate 0.250 kg/ha): 0.0
ECHCG ([4]; Rate 0.500 kg/ha): 2.0
ECHCG rating ([4]; Rate 0.500 kg/ha): 2.0
CHEAL ([5]; Rate 0.063 kg/ha): 6.0
CHEAL ([5]; Rate 0.125 kg/ha): 6.0
CHEAL rating ([5]; Rate 0.125 kg/ha): 6.0
CHEAL ([5]; Rate 0.250 kg/ha): 8.0
CHEAL rating ([5]; Rate 0.250 kg/ha): 8.0
CHEAL ([5]; Rate 0.500 kg/ha): 9.0
CHEAL rating ([5]; Rate 0.500 kg/ha): 9.0
IPOSS ([6]; Rate 0.063 kg/ha): 6.0
IPOSS ([6]; Rate 0.125 kg/ha): 6.0
IPOSS rating ([6]; Rate 0.125 kg/ha): 6.0
IPOSS ([6]; Rate 0.250 kg/ha): 8.0
IPOSS rating ([6]; Rate 0.250 kg/ha): 8.0
IPOSS ([6]; Rate 0.500 kg/ha): 9.0
IPOSS rating ([6]; Rate 0.500 kg/ha): 9.0
CHEAL ([7]; Rate 0.125 kg/ha): 3.0
CHEAL herbicidal rating ([7]; Rate 0.125 kg/ha): 3.0
CHEAL ([7]; Rate 0.250 kg/ha): 6.0
CHEAL herbicidal rating ([7]; Rate 0.250 kg/ha): 6.0
CHEAL ([7]; Rate 0.500 kg/ha): 7.0
CHEAL herbicidal rating ([7]; Rate 0.500 kg/ha): 7.0
CHEAL ([7]; Rate 1.000 kg/ha): 9.0
AMBEL ([8]; Rate 0.063 kg/ha): 3.0
AMBEL ([8]; Rate 0.125 kg/ha): 4.0
AMBEL rating ([8]; Rate 0.125 kg/ha): 4.0
AMBEL ([8]; Rate 0.250 kg/ha): 6.0
AMBEL rating ([8]; Rate 0.250 kg/ha): 6.0
AMBEL ([8]; Rate 0.500 kg/ha): 7.0
AMBEL rating ([8]; Rate 0.500 kg/ha): 7.0
TRZAWO ([9]; Rate 0.063 kg/ha): 1.5
TRZAWO ([9]; Rate 0.125 kg/ha): 2.0
TRZAWO rating ([9]; Rate 0.125 kg/ha): 2.0
TRZAWO ([9]; Rate 0.250 kg/ha): 2.0
TRZAWO rating ([9]; Rate 0.250 kg/ha): 2.0
TRZAWO ([9]; Rate 0.500 kg/ha): 2.0
TRZAWO rating ([9]; Rate 0.500 kg/ha): 2.0
SETVI ([10]; Rate 0.063 kg/ha): 1.0
SETVI ([10]; Rate 0.125 kg/ha): 1.0
SETVI rating ([10]; Rate 0.125 kg/ha): 1.0
SETVI ([10]; Rate 0.250 kg/ha): 2.0
SETVI rating ([10]; Rate 0.250 kg/ha): 2.0
SETVI ([10]; Rate 0.500 kg/ha): 4.0
SETVI rating ([10]; Rate 0.500 kg/ha): 4.0
Herbicidal effect rating, ORYSAT ([11]; 0.063 kg/ha): 0.0
Herbicidal effect rating, ORYSAT ([11]; 0.125 kg/ha): 1.0
Herbicidal effect rating, ORYSAT ([11]; 0.250 kg/ha): 2.0
Herbicidal effect rating, ORYSAT ([11]; 0.500 kg/ha): 2.0
ORYSAT ([11]; Rate 0.250 kg/ha): 2.0
ORYSAT ([11]; Rate 0.500 kg/ha): 2.0
ORYSAT ([11]; Rate 1.000 kg/ha): 3.0

— patent EP0745595A1, “3-(3-Aryloxyphenyl)-1-(substituted methyl)-s-triazine-2,4,6-oxo or thiotrione herbicidal agents” (American Cyanamid Company, priority 1995, dated 1996)
